Measurements reported in article PMC12371494, “Discovery of YTHDF2 Ligands by Fragment-Based Design” (ACS Bio & Med Chem Au, 2025).
“And” between values parts separate entries of the source, which are not always exact repeats. Equal entries are not always repeated.

What was measured:
GST-YTHDF2 = biological target: T1, GST-YTHDF2 (Homo sapiens, UniProt Q9Y5A9); experiment: HTRF-based binding assay, competition with m6A-oligoRNA, DF2; conditions: for Single-dose residual signal at 100 µM, DF2: HTRF, 100 µM compound, normalized; for LE (ligand efficiency, DF2): LE = -RT ln IC50/HAC from HTRF IC50; for IC50: dose-response, competitor m6A-oligoRNA, read-out: DF2 IC50 (HTRF assay); for Improvement of HTRF IC50 compared to fragment 14: HTRF DF2
T1 construct: made in house
T1 sequence (Q9Y5A9 1-579): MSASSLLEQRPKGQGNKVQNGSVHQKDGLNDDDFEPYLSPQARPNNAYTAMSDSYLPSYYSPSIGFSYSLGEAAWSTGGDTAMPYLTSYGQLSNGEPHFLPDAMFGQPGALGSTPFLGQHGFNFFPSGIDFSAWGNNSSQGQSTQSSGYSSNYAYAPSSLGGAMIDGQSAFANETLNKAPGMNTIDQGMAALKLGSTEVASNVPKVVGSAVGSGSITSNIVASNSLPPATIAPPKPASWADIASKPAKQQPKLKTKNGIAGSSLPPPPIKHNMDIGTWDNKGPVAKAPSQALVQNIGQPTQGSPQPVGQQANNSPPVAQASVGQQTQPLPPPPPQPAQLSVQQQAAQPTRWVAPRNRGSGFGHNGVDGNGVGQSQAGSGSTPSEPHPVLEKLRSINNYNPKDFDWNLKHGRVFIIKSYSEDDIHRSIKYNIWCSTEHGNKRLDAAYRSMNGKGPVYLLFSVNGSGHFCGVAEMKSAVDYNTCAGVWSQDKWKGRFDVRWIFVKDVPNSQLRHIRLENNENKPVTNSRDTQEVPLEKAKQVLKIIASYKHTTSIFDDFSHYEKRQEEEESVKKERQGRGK

YTHDC2 = biological target: T2, YTHDC2 (Homo sapiens, UniProt Q9H6S0); experiment: DNA-fluorescence polarization (FP) competition assay, DC2; format: binding; conditions: for Kd: Cheng-Prusoff from FP IC50, probe Kd 7 nM, two biological replicates; for Selectivity DF2 over DC2 (Kd ratio DC2/DF2): FP Kd values
T2 construct: YTH domain of YTHDC2 (residues 1285–1424, cloned into the pGEX-6P-1 vector); made in house; host or cells: Rosetta (DE3) cells (E. coli)
T2 sequence (Q9H6S0 1285-1424): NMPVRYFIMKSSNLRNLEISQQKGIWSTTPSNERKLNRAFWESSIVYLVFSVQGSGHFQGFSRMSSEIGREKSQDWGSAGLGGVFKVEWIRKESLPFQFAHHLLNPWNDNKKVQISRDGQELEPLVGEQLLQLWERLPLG
Method: (§1) The binding affinity for DC1 could not be evaluated by HTRF because of interference of the compounds with the assay, which has a smaller assay window when performed with DC1 compared to the DF proteins. Thus, the FP assay was used to evaluate binding to DC1 and DC2.
The N-terminally GST-tagged YTH domain of YTHDC2 (residues 1285–1424, cloned into the pGEX-6P-1 vector) was overexpressed in Rosetta (DE3) cells grown overnight at 20 °C following induction with 0.4 mM isopropyl-β-D-thiogalactopyranoside (IPTG) at an OD600 of 0.8. The cells were harvested and resuspended in a lysis buffer containing 100 mM Tris–HCl (pH 8.0) and 500 mM NaCl. After cell lysis, the lysate was clarified by centrifugation at 48,000g for 1 h, and the soluble proteins were loaded onto a column packed with Glutathione Sepharose 4B (GE Healthcare), then eluted with 20 mM reduced glutathione in lysis buffer. Finally, a size-exclusion chromatography step (HiLoad 16/600 Superdex 200 pg column, GE Healthcare) was performed to further purify the protein in 20 mM Tris–HCl (pH 7.4) and 150 mM NaCl.
(§2) For fluorescence polarization (FP) experiments, a 5′-fluorescein-labeled m^6A-DNA probe (5′-FAM-[…](m6A)-CTAAGCT-3′) was synthesized by Microsynth AG.
(§3) The final concentration of the fluorescein-labeled DNA was kept constant at 3 nM. For YTHDC2 measurements, the protein concentration was set to 25 nM, while for YTHDF2 measurements, it was set to 10 nM, and for YTHDC1, it was set at 15 nM. The compound concentration was serially diluted to obtain the dose–response curve. The competition experiments were conducted in a final volume of 20 μL in a buffer containing 20 mM Tris–HCl (pH 7.4), 150 mM NaCl, and 0.01% bovine serum albumin (BSA), using a 384-well black flat-bottomed microplate (Corning 3575).
(§4) After incubating the mixture for 1 h, the anisotropy values were measured using a Tecan SPARK plate reader with 485/20 nm excitation and 535/25 nm emission polarization filters, suitable for fluorescein, at 25 °C. To obtain the equilibrium dissociation constant (K d), the IC50 values were first derived by fitting a dose–response curve to the data using nonlinear regression analysis in GraphPad Prism. These IC50 values were then converted to K d by using the Cheng–Prusoff equation: Kd=IC50/1+[L]/Kdprobe
(§5) IC50 is the observed value from FP assay, [L] is the probe concentration used, and K d ^probe is the binding affinity of probe for the target.

YTHDC1 = YTHDC1 (Homo sapiens, UniProt Q96MU7); experiment: DNA-fluorescence polarization (FP) competition assay, DC1; format: binding; conditions: for Selectivity DF2 over DC1 (Kd ratio DC1/DF2): FP Kd values
Method: as §1, §2, §3, §4, §5

Row | Single-dose residual signal at 100 µM, DF2 (GST-YTHDF2) [%] | LE (ligand efficiency, DF2) (GST-YTHDF2) | IC50 (GST-YTHDF2) [µM] | Kd (YTHDC2) | Selectivity DF2 over DC2 (Kd ratio DC2/DF2) (YTHDC2) | Kd (YTHDC1) [µM] | Selectivity DF2 over DC1 (Kd ratio DC1/DF2) (YTHDC1) [fold] | Improvement of HTRF IC50 compared to fragment 14 (GST-YTHDF2) | Potency for DF2 relative to 6-cyclopropyluracil (GST-YTHDF2; HTRF IC50 values) [factor] | SMILES
1 | 4 |  | 27 | 37 µM |  |  |  |  |  | O=c1[nH]c(=S)[nH]c2scc(-c3ccc(Br)cc3)c12 [Compound S75]
2 | 6 |  | 24 | 54 µM |  |  |  |  |  | COc1ccc(-c2csc3[nH]c(=S)[nH]c(=O)c23)cc1 [Compound S76]
3 | 12 |  | 33 | 240 µM |  |  |  |  |  | O=c1[nH]c(=S)[nH]c2scc(C3CCCCC3)c12 [Compound S77]
4 | 13 |  | 33 | 160 µM |  |  |  |  |  | O=c1[nH]c(=S)[nH]c2sc(Cc3ccccc3)cc12 [Compound S85]
5 | 8 |  | 62 | 450 µM and > 400 µM |  |  |  |  |  | CCOC(=O)c1csc2[nH]c(=S)[nH]c(=O)c12 [Compound S89]
6 | 14 |  | 60 | 240 µM |  |  |  |  |  | O=C(O)c1csc2[nH]c(=S)[nH]c(=O)c12 [Compound S90]

Continued, molecule first:

Row | SMILES | Single-dose residual signal at 100 µM, DF2 (GST-YTHDF2) [%] | LE (ligand efficiency, DF2) (GST-YTHDF2) | IC50 (GST-YTHDF2) [µM] | Kd (YTHDC2) | Selectivity DF2 over DC2 (Kd ratio DC2/DF2) (YTHDC2) | Kd (YTHDC1) [µM] | Selectivity DF2 over DC1 (Kd ratio DC1/DF2) (YTHDC1) [fold] | Improvement of HTRF IC50 compared to fragment 14 (GST-YTHDF2) | Potency for DF2 relative to 6-cyclopropyluracil (GST-YTHDF2; HTRF IC50 values) [factor]
7 | O=c1[nH]c(=S)[nH]c2sccc12 [Compound 14] | 8 | 0.60 kcal/(mol HAC) | 18 | 88 µM | ~20 fold | 32 | ~8 |  | 
8 | COC(=O)c1ccc(-c2csc3[nH]c(=S)[nH]c(=O)c23)cc1 [Compound 17] | 4 | 0.35 kcal/(mol HAC) | 4.7 | 6.3 µM |  | 5 |  | 3 fold | 
9 | O=C(O)c1ccc(-c2csc3[nH]c(=S)[nH]c(=O)c23)cc1 [Compound 18] | 4 | 0.36 kcal/(mol HAC) | 5.4 | 7.7 µM |  | 6.9 |  | 3 fold | 
10 | O=c1[nH]c(=S)[nH]c2scc(-c3ccc(O)cc3)c12 [Compound 19] | 5 | 0.34 kcal/(mol HAC) | 32 | 40 µM |  | 27 |  |  | 
11 | CC(=O)c1sc2[nH]c(=S)[nH]c(=O)c2c1C [Compound 20] | 3 | 0.45 kcal/(mol HAC) | 13 | 46 µM |  | 47 |  |  | 
12 | CCOC(=O)c1sc2[nH]c(=S)[nH]c(=O)c2c1C [Compound 21] | 5 | 0.42 kcal/(mol HAC) | 6.3 | 230 µM |  | 36 |  |  | 
13 | Cc1c(C(=O)NCc2ccccc2)sc2[nH]c(=S)[nH]c(=O)c12 [Compound 22] | 5 | 0.31 kcal/(mol HAC) | 10 | 270 µM |  | 92 |  |  | 
14 | Cc1c(C(=O)NCc2cccnc2)sc2[nH]c(=S)[nH]c(=O)c12 [Compound 23] | 9 | 0.31 kcal/(mol HAC) | 11 | > 400 µM and 450 µM | about 350 fold | 120 | ~100 |  | 15
15 | Cc1c(C(=O)NCc2cccc(C(=O)O)c2)sc2[nH]c(=S)[nH]c(=O)c12 [Compound 24] | 3 | 0.26 kcal/(mol HAC) | 20 | 41 µM |  | 24 |  |  | 
16 | Cc1c(C(=O)NCCCC(=O)O)sc2[nH]c(=S)[nH]c(=O)c12 [Compound 25] | 7 | 0.32 kcal/(mol HAC) | 14 | 130 µM |  | 32 |  |  | 
17 | Cc1c(-c2ccc([N+](=O)[O-])cc2)sc2[nH]c(=S)[nH]c(=O)c12 [Compound 26] | 7 | 0.35 kcal/(mol HAC) | 4.9 | 35 µM |  | 61 |  | 3- to 4 fold | 
18 | Cc1c(-c2ccc(N)cc2)sc2[nH]c(=S)[nH]c(=O)c12 [Compound 27] | 0 | 0.39 kcal/(mol HAC) | 3.9 | 30 µM |  | 14 |  | 3- to 4 fold | 
19 | NC(=O)c1csc2[nH]c(=S)[nH]c(=O)c12 [Compound 31] | 13 | 0.47 kcal/(mol HAC) | 14 | 18 µM |  | 40 |  |  | 
